Reference: the C3SDB collision cross section collection
Several values for one entry are separate records, joined by “and”; a condition that tells them apart may be missing. Equal values may be shown once.

Settings: [M+H]+; instrument: TW; calibrated with polyalanine and drug standards

Row | collision cross section (N2) | Compound
1 | 172.6 Å² | CN(CCOc1ccc(CC2SC(=O)NC2=O)cc1)c1ccccn1 (configuration not stated) [ROSIGLITAZONE]
2 | 129 Å² | CCCCCCc1ccc(O)cc1O [HEXYLRESORCINOL]
3 | 208.3 Å² | CC(C)CCC[C@@H](C)[C@H]1CC[C@H]2[C@@H]3C=CC4=CC(=O)CC[C@]4(C)[C@H]3CC[C@]12C [CHOLESTA-4,6-DIEN-3-ONE]
4 | 184.8 Å² | c1ccc(-c2ccc(C(c3ccccc3)n3ccnc3)cc2)cc1 (configuration not stated) [BIFONAZOLE]
5 | 210.8 Å² | C[C@H](CCC(=O)O)[C@H]1CC[C@H]2[C@@H]3CC[C@@H]4C[C@H](O)CC[C@]4(C)[C@H]3CC[C@]12C [LITHOCHOLIC ACID]
6 | 161.7 Å² | Cc1cc(C)nc(NS(=O)(=O)c2ccc(N)cc2)n1 [SULFAMETHAZINE]
7 | 161.9 Å² | CCCCNC(=O)NS(=O)(=O)c1ccc(C)cc1 [TOLBUTAMIDE]
8 | 191.3 Å² | COc1ccc(-c2cc(=O)c3c(OC)c(OC)c(OC)c(OC)c3o2)cc1OC [NOBILETIN]
9 | 156.5 Å² | Cc1c(NC(C)C)c(=O)n(-c2ccccc2)n1C [RAMIFENAZONE]
10 | 247.3 Å² | COC(=O)[C@H]1[C@H]2C[C@@H]3c4[nH]c5cc(OC)ccc5c4CCN3C[C@H]2C[C@@H](OC(=O)c2cc(OC)c(OC)c(OC)c2)[C@@H]1OC [RESERPINE]
11 | 124.7 Å² | COc1cccc(O)c1O [3-METHOXYCATECHOL]
12 | 165.6 Å² | CCOC(=O)c1ncn2c1CN(C)C(=O)c1cc(F)ccc1-2 [FUMAZENIL]
13 | 153 Å² | O=C(/C=C/c1ccc(O)cc1)c1ccccc1O [2',4-DIHYDROXYCHALCONE]
14 | 135.8 Å² | CCC(C(N)=O)c1ccccc1 (configuration not stated) [FENBUTYRAMIDE]
15 | 188.6 Å² | NS(=O)(=O)c1cc2c(cc1C(F)(F)F)NC(Cc1ccccc1)NS2(=O)=O (configuration not stated) [BENDROFLUMETHIAZIDE]
16 | 171.2 Å² | COC(=O)Nc1nc2ccc(C(=O)c3ccccc3)cc2[nH]1 [MEBENDAZOLE]
17 | 171.4 Å² | O=C(/C=C/C=C/c1ccc2c(c1)OCO2)N1CCCCC1 [PIPERINE]
18 | 173.3 Å² | Cc1ccc(S(=O)(=O)NC(=O)NN2CCCCCC2)cc1 [TOLAZAMIDE]
19 | 170.8 Å² | COC(=O)Nc1nc2ccc(Sc3ccccc3)cc2[nH]1 [FENBENDAZOLE]
20 | 146.4 Å² | COc1c(OC)c2occc2c2oc(=O)ccc12 [PIMPINELLIN]
21 | 185.1 Å² | C[C@]12CCC(=O)C=C1CC[C@@H]1[C@@H]2[C@@H](O)C[C@@]2(C)[C@H]1CC[C@]2(O)C(=O)CO [HYDROCORTISONE]
22 | 205.8 Å² | CC(C)=CCc1c2c(c3occ(-c4ccc(O)c(O)c4)c(=O)c3c1O)C=CC(C)(C)O2 [POMIFERIN]
23 | 127.1 Å² | COc1cc(O)c(C)c(O)c1 [2,6-DIHYDROXY-4-METHOXYTOLUENE]

Row | collision cross section (N2) | Compound
24 | 317 Å² | CO[C@@H]1[C@@H](OC2OC(C)C(OC3CC(C)(O)C(O)C(C)O3)C(N(C)C)C2O)[C@@H](CC=O)C[C@@H](C)[C@@H](OC2CCC(N(C)C)C(C)O2)/C=C/C=C/C[C@@H](C)OC(=O)C[C@H]1O (some centres not stated) [SPIRAMYCIN]
25 | 159.9 Å² | COc1ccc2oc(-c3ccccc3)c(OC)c(=O)c2c1 [3,6-DIMETHOXYFLAVONE]
26 | 260.8 Å² | COc1ccc(-c2oc3c(CC=C(C)C)c(O[C@@H]4O[C@H](CO)[C@@H](O)[C@H](O)[C@H]4O)cc(O)c3c(=O)c2O[C@@H]2O[C@@H](C)[C@H](O)[C@@H](O)[C@H]2O)cc1 [ICARIIN]
27 | 147.6 Å² | C[C@](N)(Cc1ccc(O)c(O)c1)C(=O)O [METHYLDOPA]
28 | 157.1 Å² | CN1CCOC(c2ccccc2)c2ccccc2C1 (configuration not stated) [NEFOPAM]
29 | 176.7 Å² | COc1cc(OC)c2c(OC)c(-c3ccc4c(c3)OCO4)c(=O)oc2c1 [DERRUSNIN]
30 | 169.8 Å² | CN1C(C(=O)Nc2ccccn2)=C(O)c2sccc2S1(=O)=O [TENOXICAM]
31 | 144 Å² | CC(C)Cc1ccc(C(C)C(=O)O)cc1 (configuration not stated) [IBUPROFEN]
32 | 193.5 Å² | O=C1C(CCS(=O)c2ccccc2)C(=O)N(c2ccccc2)N1c1ccccc1 (configuration not stated) [SULFINPYRAZONE]
33 | 125.4 Å² | CCOC(=O)c1ccc(O)cc1 [ETHYL PARABEN]
34 | 204.1 Å² | C=C1[C@H]2CC[C@@]3(C)[C@H](c4ccoc4)OC(=O)C[C@]13O[C@H]1C[C@H](O)C(C)(C)[C@H](CC(=O)OC)[C@]12C [3-DEOXY-3beta-HYDROXYANGOLENSIC ACID METHYL ESTER]
35 | 130.2 Å² | O=C(O)c1cccnc1C(=O)O [QUINOLINIC ACID]
36 | 159.4 Å² | Cc1cccc2c3c(ccc12)C1=C(C(=O)C3=O)[C@@H](C)CO1 [DIHYDROTANSHINONE I]
37 | 158.6 Å² | Cn1c(=O)c2[nH]c(C3CCCC3)nc2n(C)c1=O [8-CYCLOPENTYLTHEOPHYLLINE]
38 | 188.7 Å² | CN1CC(=O)N2[C@H](c3ccc4c(c3)OCO4)c3[nH]c4ccccc4c3C[C@@H]2C1=O [TADALAFIL]
39 | 163.4 Å² | OC(Cn1cncn1)(Cn1cncn1)c1ccc(F)cc1F [FLUCONAZOLE]
40 | 160.3 Å² | COc1ccc(-c2coc3cc(OC)ccc3c2=O)cc1 [7,4'-DIMETHOXYISOFLAVONE]
41 | 168.1 Å² and 184.7 Å² | CCn1cc(C(=O)O)c(=O)c2cc(F)c(N3CCNCC3)nc21 [ENOXACIN]
42 | 150.8 Å² | Nc1ccc(S(=O)(=O)Nc2nccs2)cc1 [SULFATHIAZOLE]
43 | 183.4 Å² | COc1ccnc(CS(=O)c2nc3ccc(OC(F)F)cc3[nH]2)c1OC (configuration not stated) [PANTOPRAZOLE]
44 | 204.8 Å² | CCCCCCCCCCCCCCCC(=O)OC[C@H](O)[C@H]1OC(=O)C(O)=C1O [ASCORBYL PALMITATE]
45 | 152.3 Å² | CC(=O)N[C@@H](Cc1c[nH]c2ccccc12)C(=O)O [ACETYLTRYPTOPHAN]
46 | 173.4 Å² | Cc1ncc(CSSCc2cnc(C)c(O)c2CO)c(CO)c1O [PYRITINOL]

Row | Compound | collision cross section (N2)
47 | CC[C@@H](C)C(=O)O[C@H]1[C@H](O)[C@H]2[C@@H](CN3C[C@@H](C)CC[C@H]3[C@@]2(C)O)[C@@H]2C[C@]34O[C@]5(O)[C@@H](OC(=O)[C@](C)(O)[C@@H](C)O)CC[C@@]3(C)[C@@H]5[C@@H](OC(C)=O)[C@@H](OC(C)=O)[C@H]4[C@@]21O [PROTOVERATRINE B] | 287 Å²
48 | COc1cc2c(cc1-c1cc3cc4ccoc4cc3oc1=O)OCO2 [PACHYRRHIZIN] | 170.7 Å²
49 | O=c1cccc2n1C[C@@H]1CNC[C@H]2C1 [CYTISINE] | 137.9 Å²
50 | C=C(C)[C@H]1Cc2c(ccc3c2O[C@@H]2COc4cc(OC)c(OC)cc4[C@@H]2C3=O)O1 [ROTENONE] | 193.2 Å²
51 | CCC(C)C(=O)O[C@@H]1C[C@@]2(C)[C@H](c3ccoc3)OC(=O)CC23OC2(C)OC34[C@H](OC(=O)C(C)C)[C@@]3(O)[C@@H](OC(=O)C5(C)OC5C)[C@@]5(C)C[C@]3(O)[C@@](C)([C@H]5CC(=O)OC)C14O2 (some centres not stated) [ENTANDROPHRAGMIN] | 259.8 Å²
52 | CC(=O)OC1CN2CCC1CC2 (configuration not stated) [ACECLIDINE] | 136.2 Å²
53 | C/C=C/c1ccc2c(c1)OCO2 [ISOSAFROLE] | 138.4 Å²
54 | CC(=O)O[C@H]1C[C@H](O[C@H]2[C@@H](O)C[C@H](O[C@H]3[C@@H](O)C[C@H](O[C@H]4CC[C@@]5(C)[C@H](CC[C@@H]6[C@@H]5C[C@@H](O)[C@]5(C)[C@@H](C7=CC(=O)OC7)CC[C@]65O)C4)O[C@@H]3C)O[C@@H]2C)O[C@H](C)[C@H]1O[C@@H]1O[C@H](CO)[C@@H](O)[C@H](O)[C@H]1O [LANATOSIDE C] | 289.4 Å²
55 | CC1(C)C2C[C@@H](O)[C@]3(C)C(CC[C@@]4(C)[C@H](c5ccoc5)OC(=O)[C@H]5O[C@]543)[C@@]2(C)[C@@H](O)C[C@H]1O (some centres not stated) [TRIDESACETOXYKHIVORIN] | 201.5 Å²
56 | COc1ccc2c(c1)[nH]c1c(C)nccc12 [HARMINE] | 144.5 Å²
57 | CC(=O)O[C@H]1CC[C@@]2(C)C(C[C@@H](OC(C)=O)[C@]3(C)C2CC[C@@]2(C)[C@H](c4ccoc4)OC(=O)[C@H]4O[C@]423)C1(C)C (stereo partly drawn) [3beta-ACETOXYDEOXODIHYDROGEDUNIN] | 219.2 Å²

Same assay, conditions: [M+Na]+; instrument: TW; calibrated with polyalanine and drug standards

Row | collision cross section (N2) [Å²] | Compound
58 | 227 | COc1ccc([C@@H]2CC(=O)c3c(O)cc(O[C@@H]4O[C@H](CO[C@@H]5O[C@@H](C)[C@H](O)[C@@H](O)[C@H]5O)[C@@H](O)[C@H](O)[C@H]4O)cc3O2)cc1O [HESPERIDIN]
59 | 267 | C=CC[C@@H]1/C=C(\C)C[C@H](C)C[C@H](OC)[C@H]2O[C@@](O)(C(=O)C(=O)N3CCCC[C@H]3C(=O)O[C@H](/C(C)=C/[C@@H]3CC[C@@H](O)[C@H](OC)C3)[C@H](C)[C@@H](O)CC1=O)[C@H](C)C[C@@H]2OC [TACROLIMUS]
60 | 185.6 | C=C[C@@]1(C)CC(=O)[C@@]2(O)[C@](C)(O1)[C@@H](O)[C@@H](O)C1C(C)(C)CC[C@H](O)[C@@]12C (some centres not stated) [DESACETYLCOLFORSIN]

Row | Compound | collision cross section (N2) [Å²]
61 | COC(C)(C)CCC[C@H](C)C/C=C/C(C)=C/C(=O)OC(C)C [METHOPRENE (S)] | 187
62 | CC(C)(O)[C@@H]1[C@H]2OC(=O)[C@@H]1[C@]1(O)C[C@H]3O[C@]34C(=O)O[C@H]2[C@]14C [PICROTIN] | 173.7
